# Laboratory results reported in US6737383B1, “Herbicidal oxadiazolidines” (priority 1999, dated 2004).
# Key:
# [1] = system: pigweed; assay: Test B pre/postemergence pigweed; format: in vivo, Amaranthus retroflexus
# Method in brief: (§1)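 Herbicidal effect was estimated by eye on a ten-point control scale after plants spent twelve to sixteen days in a greenhouse following soil or foliar treatment. Foliar sprays targeted plants at one to four leaves; all doses were formulated in a non-phytotoxic solvent with surfactant.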
# [2] = system: soybean; assay: Test B pre/postemergence soybean; format: in vivo, Glycine max
# Method in brief: as §1
# [3] = system: sugar beet; assay: Test B pre/postemergence sugar beet; format: in vivo, Beta vulgaris
# Method in brief: as §1
# [4] = system: velvetleaf; assay: Test B pre/postemergence velvetleaf; format: in vivo, Abutilon theophrasti
# Method in brief: as §1
# [5] = system: wheat; assay: Test B pre/postemergence wheat; format: in vivo, Triticum aestivum
# Method in brief: as §1
# [6] = system: wild oat; assay: Test B pre/postemergence wild oat; format: in vivo, Avena fatua
# Method in brief: as §1
# [7] = system: purple nutsedge; assay: Test B pre/postemergence purple nutsedge; format: in vivo, Cyperus rotundus
# Method in brief: as §1
# [8] = system: rice; assay: Test B flood test rice; format: in vivo, Oryza sativa
# Method in brief: (§2)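 Flood test on plants grown to the 2-leaf stage; treated plants kept in greenhouse twelve to sixteen days, then visually rated against controls on a 0 (no effect) to 10 (complete control) scale.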
# [9] = system: duck salad; assay: Test B flood test duck salad; format: in vivo, Heteranthera limosa
# Method in brief: as §2
# [10] = Rate 62 g/ha, Postemergence, scale of 0 to 10 where 0 is no effect and 10 is complete control
# [11] = Rate 250 g/ha, Postemergence, scale 0 to 10, 0 is no effect, 10 is complete control
# [12] = Rate 500 g/ha, Postemergence, scale 0 to 10
# [13] = Rate 1000 g/ha, Preemergence, scale 0 to 10 (0 no effect, 10 complete control)
# [14] = Rate 2000 g/ha, Postemergence, scale 0 to 10
# [15] = Rate 2000 g/ha, Preemergence, scale 0 to 10
# [16] = Postemergence, Rate 125 g/ha, scale of 0 to 10 where 0 is no effect and 10 is complete control
# [17] = Postemergence, Rate 1000 g/ha, scale 0 to 10 (0 no effect, 10 complete control)
# [18] = Preemergence, Rate 62 g/ha, scale of 0 to 10 where 0 is no effect and 10 is complete control
# [19] = Preemergence, Rate 125 g/ha, 0 is no effect, 10 is complete control
# [20] = Preemergence, Rate 250 g/ha, scale 0 to 10, 0 is no effect, 10 is complete control
# [21] = Preemergence, Rate 500 g/ha, scale 0 to 10 (0 no effect, 10 complete control)
# [22] = Postemergence (flood test species), Rate 125 g/ha, scale of 0 to 10 where 0 is no effect and 10 is complete control
# [23] = Rate 62 g/ha, Postemergence section, flood test species, scale of 0 to 10 where 0 is no effect and 10 is complete control
# [24] = Rate 250 g/ha, Postemergence (flood test), scale 0 to 10, 0 is no effect, 10 is complete control
# [25] = Rate 250 g/ha, Pre-emergence, flood-test species, scale 0 to 10, 0 is no effect, 10 is complete control
# [26] = Rate 500 g/ha, headed Pre-emergence (flood test species), scale 0 to 10 (0 no effect, 10 complete control)
# [27] = Rate 500 g/ha, listed under Postemergence (flood test species), scale 0 to 10
# [28] = Rate 1000 g/ha, Pre-emergence (as headed), scale 0 to 10
# [29] = Rate 2000 g/ha, Pre-emergence (as headed), scale 0 to 10
compound,measurement,setting,value
CC(C)N(C(=O)n1oc(=O)n(N(C)c2ccccc2)c1=O)c1ccc(F)cc1 [Compound 177],Redroot pigweed plant response rating,[1]; [10],0
same,"Plant response rating, Redroot pigweed",[1]; [11],0
same,Redroot pigweed plant response rating,[1]; [12],3
same,"Plant response rating, Redroot pigweed",[1]; [13],0
same,Redroot pigweed plant response rating,[1]; [14],3
same,Redroot pigweed plant response rating,[1]; [15],0
same,Soybean plant response rating,[2]; [16],1
same,Soybean plant response rating,[2]; [17],3
same,Soybean plant response rating,[2]; [18],0
same,Soybean plant response rating (0 to 10 scale),[2]; [19],0
same,Soybean plant response rating,[2]; [20],0
same,Soybean plant response rating,[2]; [21],0
same,Soybean plant response rating,[2]; [10],1
same,"Plant response rating, Soybean",[2]; [11],2
same,Soybean plant response rating,[2]; [12],4
same,"Plant response rating, Soybean",[2]; [13],0
same,Soybean plant response rating,[2]; [14],4
same,Soybean plant response rating,[2]; [15],0
same,Sugarbeets plant response rating,[3]; [16],0
same,Sugarbeets plant response rating,[3]; [17],0
same,Sugarbeets plant response rating,[3]; [18],0
same,Sugarbeets plant response rating (0 to 10 scale),[3]; [19],0
same,Sugarbeets plant response rating,[3]; [20],0
same,Sugarbeets plant response rating,[3]; [21],0
same,Sugarbeets plant response rating,[3]; [10],0
same,"Plant response rating, Sugarbeets",[3]; [11],0
same,Sugarbeets plant response rating,[3]; [12],0
same,"Plant response rating, Sugarbeets",[3]; [13],0
same,Sugarbeets plant response rating,[3]; [14],0
same,Sugarbeets plant response rating,[3]; [15],0
same,Velvetleaf plant response rating,[4]; [17],0
same,Velvetleaf plant response rating,[4]; [18],0
same,Velvetleaf plant response rating (0 to 10 scale),[4]; [19],0
same,Velvetleaf plant response rating,[4]; [20],0
same,Velvetleaf plant response rating,[4]; [21],0
same,"Plant response rating, Velvetleaf",[4]; [11],0
same,Velvetleaf plant response rating,[4]; [12],3
same,"Plant response rating, Velvetleaf",[4]; [13],0
same,Velvetleaf plant response rating,[4]; [14],4
same,Velvetleaf plant response rating,[4]; [15],3
same,Wheat plant response rating,[5]; [17],3
same,Wheat plant response rating,[5]; [18],0
same,Wheat plant response rating (0 to 10 scale),[5]; [19],0
same,Wheat plant response rating,[5]; [20],0
same,Wheat plant response rating,[5]; [21],0
same,"Plant response rating, Wheat",[5]; [11],0
same,Wheat plant response rating,[5]; [12],4
same,"Plant response rating, Wheat",[5]; [13],0
same,Wheat plant response rating,[5]; [14],3
same,Wheat plant response rating,[5]; [15],2
same,Wild oats plant response rating,[6]; [17],2
same,Wild oats plant response rating,[6]; [18],0
same,Wild oats plant response rating (0 to 10 scale),[6]; [19],0
same,Wild oats plant response rating,[6]; [20],0
same,Wild oats plant response rating,[6]; [21],2
same,"Plant response rating, Wild oats",[6]; [11],0
same,Wild oats plant response rating,[6]; [12],0
same,"Plant response rating, Wild oats",[6]; [13],10
same,Wild oats plant response rating,[6]; [14],2
same,Wild oats plant response rating,[6]; [15],10
same,Nutsedge plant response rating,[7]; [16],0
same,Nutsedge plant response rating,[7]; [17],0
same,Nutsedge plant response rating,[7]; [18],0
same,Nutsedge plant response rating (0 to 10 scale),[7]; [19],0
same,Nutsedge plant response rating,[7]; [20],0
same,Nutsedge plant response rating,[7]; [21],0
same,Nutsedge plant response rating,[7]; [10],0
same,"Plant response rating, Nutsedge",[7]; [11],0
same,Nutsedge plant response rating,[7]; [12],0
same,"Plant response rating, Nutsedge",[7]; [13],0
same,Nutsedge plant response rating,[7]; [14],0
same,Nutsedge plant response rating,[7]; [15],0
same,Rice plant response rating,[8]; [22],0
same,Rice plant response rating,[8]; [23],0
same,"Plant response rating, Rice",[8]; [24],0
same,Rice plant response rating,[8]; [25],0
same,"Plant response rating, Rice",[8]; [26],0
same,Rice plant response rating,[8]; [27],0
same,Rice plant response rating,[8]; [28],0
same,Rice plant response rating,[8]; [29],0
same,Ducksalad plant response rating,[9]; [22],0
same,Ducksalad plant response rating,[9]; [23],0
same,"Plant response rating, Ducksalad",[9]; [24],2
same,Ducksalad plant response rating,[9]; [25],0
same,"Plant response rating, Ducksalad",[9]; [26],0
same,Ducksalad plant response rating,[9]; [27],2
same,Ducksalad plant response rating,[9]; [28],0
same,Ducksalad plant response rating,[9]; [29],0
